The source of these data is PMC3816736 (Biochemical pharmacology, 2013).

Experiment [1] has as its target T1, xanthine oxidase (XO) (Bos taurus, UniProt P80457). Description: spectrophotometric uric acid formation at […] nm, […] compound. Type of experiment: biochemical.
Experiment [2] has as its target T1, xanthine oxidase (XO). Description: spectrophotometric uric acid formation at […] nm. Type of experiment: biochemical.

T1 sequence (P80457 2-1332): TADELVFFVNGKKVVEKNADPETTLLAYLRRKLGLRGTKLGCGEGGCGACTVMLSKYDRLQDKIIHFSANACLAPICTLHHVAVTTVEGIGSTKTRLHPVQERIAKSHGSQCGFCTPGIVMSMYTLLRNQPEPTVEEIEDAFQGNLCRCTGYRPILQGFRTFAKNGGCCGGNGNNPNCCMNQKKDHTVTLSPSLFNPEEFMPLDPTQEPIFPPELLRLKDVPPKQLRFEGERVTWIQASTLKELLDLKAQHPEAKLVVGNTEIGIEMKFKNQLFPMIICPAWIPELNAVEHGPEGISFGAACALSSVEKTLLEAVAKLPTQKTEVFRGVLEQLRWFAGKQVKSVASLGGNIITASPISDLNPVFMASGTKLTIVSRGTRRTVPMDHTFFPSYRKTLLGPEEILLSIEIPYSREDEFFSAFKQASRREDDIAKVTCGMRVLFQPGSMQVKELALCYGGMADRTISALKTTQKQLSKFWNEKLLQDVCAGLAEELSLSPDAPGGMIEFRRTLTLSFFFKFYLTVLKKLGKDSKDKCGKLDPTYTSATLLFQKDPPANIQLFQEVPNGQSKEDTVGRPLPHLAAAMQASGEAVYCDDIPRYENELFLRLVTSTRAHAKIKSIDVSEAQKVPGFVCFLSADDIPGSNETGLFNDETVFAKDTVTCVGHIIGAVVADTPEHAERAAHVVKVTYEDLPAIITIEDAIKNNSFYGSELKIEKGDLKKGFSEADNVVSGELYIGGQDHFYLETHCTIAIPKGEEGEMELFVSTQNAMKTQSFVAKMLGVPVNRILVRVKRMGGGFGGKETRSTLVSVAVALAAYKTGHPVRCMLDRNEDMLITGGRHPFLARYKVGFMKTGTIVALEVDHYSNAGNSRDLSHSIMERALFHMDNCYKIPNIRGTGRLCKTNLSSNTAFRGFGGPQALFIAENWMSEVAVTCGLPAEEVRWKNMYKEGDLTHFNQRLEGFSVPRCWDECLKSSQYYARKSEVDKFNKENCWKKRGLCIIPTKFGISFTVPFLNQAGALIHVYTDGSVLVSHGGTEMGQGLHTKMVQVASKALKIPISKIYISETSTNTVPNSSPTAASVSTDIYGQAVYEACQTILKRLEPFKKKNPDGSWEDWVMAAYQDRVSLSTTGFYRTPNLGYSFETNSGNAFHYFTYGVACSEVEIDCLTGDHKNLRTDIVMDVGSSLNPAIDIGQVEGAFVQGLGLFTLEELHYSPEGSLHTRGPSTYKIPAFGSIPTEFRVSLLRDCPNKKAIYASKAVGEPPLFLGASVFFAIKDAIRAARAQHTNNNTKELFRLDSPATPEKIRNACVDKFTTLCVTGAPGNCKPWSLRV

For `O=Cc1ccc(O)c(O)c1` [DHB-CHO, 3,4-dihydroxybenzaldehyde], in experiment [1], the “spectrophotometric uric acid formation at 295 nm, 20 μM compound” value is “−CHO group such as DHNB, DH6NB, DHB-CHO and THB-CHO had an inhibitory effect on XO”. As a reminder, the IC50 is the concentration needed to halve the response being measured. Low readings indicate greater potency, high ones weaker potency. `O=Cc1cc(O)c(O)c(O)c1` [THB-CHO, 3,4,5-trihydroxybenzaldehyde] registered an IC50 in experiment [2] above 80 µM.

The compound `OCc1ccc(O)c(O)c1` [DHBA, 3,4-dihydroxybenzyl alcohol] gave an IC50 in experiment [2] of 76 µM.
